# Test results from US3956338A, “4,6-Dibromo-5-hydroxy-2-pyridine nitrile compounds and method of preparation” (The Dow Chemical Company, priority 1975, dated 1976).
# How the values were obtained:
# Wild Mustard = experiment: Comparison with BROMINIL as post-emergent herbicide; type: in vivo; conditions: Brassica, post-emergence; post-emergent spray, 0.2% Tween 20, 300 gallons per acre; read-out: Concentration Required for adequate control
# Protocol: (§1) All plants were grown in a greenhouse and sprayed with the test solution when they attained 1 to 2 inches in height. The test solutions were made up in water, using a 0.2% Tween 20 surfactant (polyoxyethylene derivative of a fatty acid partial ester of sorbitol) and were applied in a total spray volume equivalent to 300 gallons per acre.
# Morning Glory [1] = experiment: as above; type: in vivo; conditions: Ipomoea, post-emergence; post-emergent spray, 0.2% Tween 20, 300 gallons per acre; read-out: Concentration Required for adequate control
# Protocol: as §1
# Wild Oats [2] = experiment: as above; type: in vivo; conditions: for minimal effective concentration: Avena fatua, post-emergence, post-emergent spray, 0.2% Tween 20, 300 gallons per acre, read-out: Concentration Required for adequate control
# Protocol: as §1
# Wheat = experiment: as above; type: in vivo; conditions: Triticum aestivum, post-emergence; post-emergent spray, 0.2% Tween 20, 300 gallons per acre; read-out: Concentration: minimum required for injury of wheat
# Protocol: as §1
# Buckwheat = experiment: as above; type: in vivo; conditions: post-emergence; post-emergent spray, 0.2% Tween 20, 300 gallons per acre; read-out: Concentration Required for adequate control
# Protocol: as §1
# Bindweed [3] = experiment: as above; type: in vivo; conditions: post-emergence; post-emergent spray, 0.2% Tween 20, 300 gallons per acre; read-out: Concentration Required for adequate control
# Protocol: as §1
# plants = experiment: Comparison with BROMINIL as post-emergent herbicide, overall; type: in vivo; conditions: Example 2(C)
# Protocol: as §1
# weeds = experiment: Post- and pre-emergent herbicide evaluation, weeds overall; type: in vivo; conditions: Examples 2(A) and 2(B)
# Protocol: (§2) Pots are filled with a sandy soil, and plants of any species considered appropriate (such as pigweed, field bindweed, velvet leaf, cotton, barnyard grass, foxtail, wild oat, and crabgrass) are grown to an average height of 2 to 4 inches. Plants are then sprayed to run-off with an aqueous solution or dispersion containing the test chemical at the desired concentration. The plants are maintained in the greenhouse and are sub-irrigated as necessary. Final readings are made 2 weeks after treatment. Readings represent the percent kill or control of growth on the treated plants when compared to untreated plants, with 0 = no visible effects and 100 = all plants dead. Compounds found active are subsequently tested over a range of rates which are less than the initial rate. […]
# (§3) Pots are filled to within 1 inch of the top with a medium-textured soil and seeds of any species considered appropriate (such as pigweed, field bindweed, velvet leaf, cotton, barnyard grass, foxtail, wild oat and crabgrass) are sown in their appropriate area. […] Final readings are made about 2 weeks after treatment, the exact time depending upon the rate of plant growth. Readings are based on the germination and the growth of treated plants compared with that of untreated plants. Readings of 0% = no visible effects and 100% = all plants dead. […]
# crop plants = experiment: Post- and pre-emergent herbicide evaluation, crop plants overall; type: in vivo; conditions: at concentrations effective for weed control
# Protocol: as §2, §3
# Solubility = type: physicochemical
# Staphylococcus aureus = experiment: Standard screening test, growth inhibition of microorganism; type: cell-based; conditions: 500 ppm
# German Millet [4] = experiment: Pre-emergent herbicide evaluation (Table II); type: in vivo; conditions: 2 Lbs/Acre, about 2 weeks after treatment
# Text: (§4) Pots are filled to within 1 inch of the top with a medium-textured soil and seeds of any species considered appropriate (such as pigweed, field bindweed, velvet leaf, cotton, barnyard grass, foxtail, wild oat and crabgrass) are sown in their appropriate area. The seeds are then covered with a 1/2 inch layer of a sandy soil and test chemicals formulated at the desired concentration are drenched onto the soil surface in sufficient volume to wet the top 11/2 to 2 inches of soil. The pots are maintained in the greenhouse and are top-watered as necessary. Final readings are made about 2 weeks after treatment, the exact time depending upon the rate of plant growth. Readings are based on the germination and the growth of treated plants compared with that of untreated plants. Readings of 0% = no visible effects and 100% = all plants dead.
# (§5) Compounds found active are subsequently tested over a range of rates which are less than the initial rate. The procedure is the same as described above with the exceptions that the seeds of appropriate species (such as soybean, corn, wheat, ragweed, Johnson grass, etc.) are covered with the same medium-textured soil used to fill the pot, and the chemicals are sprayed onto the soil surface at the desired rate in sufficient volume to cover and wet the soil surface. The pots are maintained, top-watered, and graded as described above.
# Yellow Foxtail [5] = experiment: Pre-emergent herbicide evaluation (Table II); type: in vivo; conditions: 10 Lbs/Acre, about 2 weeks after treatment
# Text: as §4, §5
# Corn [6] = experiment: Pre-emergent herbicide evaluation (Table II); type: in vivo; conditions: 4 Lbs/Acre, about 2 weeks after treatment
# Text: as §4, §5
# White Winter Wheat [7] = experiment: Pre-emergent herbicide evaluation (Table II); type: in vivo; conditions: 4 Lbs/Acre, about 2 weeks after treatment
# Text: as §4, §5
# Soybean = experiment: Pre-emergent herbicide evaluation (Table II); type: in vivo; conditions: 4 Lbs/Acre, about 2 weeks after treatment
# Text: as §4, §5
# Johnson Grass = experiment: Pre-emergent herbicide evaluation (Table II); type: in vivo; conditions: 4 Lbs/Acre, about 2 weeks after treatment
# Text: as §4, §5
# Rape [8] = experiment: Pre-emergent herbicide evaluation (Table II); type: in vivo; conditions: 4 Lbs/Acre, about 2 weeks after treatment
# Text: as §4, §5
# Barnyard Grass [9] = experiment: Pre-emergent herbicide evaluation (Table II); type: in vivo; conditions: 10 Lbs/Acre, about 2 weeks after treatment
# Text: as §4, §5
# Morning Glory [10] = experiment: Pre-emergent herbicide evaluation (Table II); type: in vivo; conditions: 4 Lbs/Acre, about 2 weeks after treatment
# Text: as §4, §5
# Beans [11] = experiment: Pre-emergent herbicide evaluation (Table II); type: in vivo; conditions: 10 Lbs/Acre, about 2 weeks after treatment
# Text: as §4, §5
# Wild Oats [12] = experiment: Pre-emergent herbicide evaluation (Table II); type: in vivo; conditions: about 2 weeks after treatment
# Text: as §4, §5
# Sorghum/Milo [13] = experiment: Pre-emergent herbicide evaluation (Table II); type: in vivo; conditions: about 2 weeks after treatment
# Text: as §4, §5
# Pigweeds [14] = experiment: Pre-emergent herbicide evaluation (Table II); type: in vivo; conditions: 2 Lbs/Acre, about 2 weeks after treatment
# Text: as §4, §5
# Cotton [15] = experiment: Pre-emergent herbicide evaluation (Table II); type: in vivo; conditions: about 2 weeks after treatment
# Text: as §4, §5
# Cultured Rice [16] = experiment: Pre-emergent herbicide evaluation (Table II); type: in vivo; conditions: about 2 weeks after treatment
# Text: as §4, §5
# Bindweed [17] = experiment: Pre-emergent herbicide evaluation (Table II); type: in vivo; conditions: 10 Lbs/Acre, about 2 weeks after treatment
# Text: as §4, §5
# Velvet Leaf [18] = experiment: Pre-emergent herbicide evaluation (Table II); type: in vivo; conditions: 10 Lbs/Acre, about 2 weeks after treatment
# Text: as §4, §5
# Crabgrass [19] = experiment: Pre-emergent herbicide evaluation (Table II); type: in vivo; conditions: 10 Lbs/Acre, about 2 weeks after treatment
# Text: as §4, §5
# German Millet [20] = experiment: Post-emergent herbicide evaluation (Table I); type: in vivo; conditions: 4000 ppm, 2 weeks after treatment
# Protocol: (§6) Pots are filled with a sandy soil, and plants of any species considered appropriate (such as pigweed, field bindweed, velvet leaf, cotton, barnyard grass, foxtail, wild oat, and crabgrass) are grown to an average height of 2 to 4 inches. Plants are then sprayed to run-off with an aqueous solution or dispersion containing the test chemical at the desired concentration. The plants are maintained in the greenhouse and are sub-irrigated as necessary. Final readings are made 2 weeks after treatment. Readings represent the percent kill or control of growth on the treated plants when compared to untreated plants, with 0 = no visible effects and 100 = all plants dead. Compounds found active are subsequently tested over a range of rates which are less than the initial rate. The procedure is the same as described above except that additional species (such as soybean, corn, wheat, ragweed, Johnson grass, etc.) are used. Additionally, test chemicals may be applied to the soil surface by drenching or as a solid to preclude contact with foliage. If foliage is sprayed, the pots are subsequently maintained by sub-irrigation; if chemical application is made to the soil, the pots are top-watered.
# Yellow Foxtail [21] = experiment: Post-emergent herbicide evaluation (Table I); type: in vivo; conditions: 4000 ppm, 2 weeks after treatment
# Protocol: as §6
# Corn [22] = experiment: Post-emergent herbicide evaluation (Table I); type: in vivo; conditions: 4000 ppm, 2 weeks after treatment
# Protocol: as §6
# White Winter Wheat [23] = experiment: Post-emergent herbicide evaluation (Table I); type: in vivo; conditions: 2000 ppm, 2 weeks after treatment
# Protocol: as §6
# Rape [24] = experiment: Post-emergent herbicide evaluation (Table I); type: in vivo; conditions: 1000 ppm, 2 weeks after treatment
# Protocol: as §6
# Barnyard Grass [25] = experiment: Post-emergent herbicide evaluation (Table I); type: in vivo; conditions: 4000 ppm, 2 weeks after treatment
# Protocol: as §6
# Morning Glory [26] = experiment: Post-emergent herbicide evaluation (Table I); type: in vivo; conditions: 2000 ppm, 2 weeks after treatment
# Protocol: as §6
# Beans [27] = experiment: Post-emergent herbicide evaluation (Table I); type: in vivo; conditions: 4000 ppm, 2 weeks after treatment
# Protocol: as §6
# Wild Oats [28] = experiment: Post-emergent herbicide evaluation (Table I); type: in vivo; conditions: 4000 ppm, 2 weeks after treatment
# Protocol: as §6
# Sorghum/Milo [29] = experiment: Post-emergent herbicide evaluation (Table I); type: in vivo; conditions: 4000 ppm, 2 weeks after treatment
# Protocol: as §6
# Pigweeds [30] = experiment: Post-emergent herbicide evaluation (Table I); type: in vivo; conditions: 1000 ppm, 2 weeks after treatment
# Protocol: as §6
# Cotton [31] = experiment: Post-emergent herbicide evaluation (Table I); type: in vivo; conditions: 4000 ppm, 2 weeks after treatment
# Protocol: as §6
# Cultured Rice [32] = experiment: Post-emergent herbicide evaluation (Table I); type: in vivo; conditions: 4000 ppm, 2 weeks after treatment
# Protocol: as §6
# Velvet Leaf [33] = experiment: Post-emergent herbicide evaluation (Table I); type: in vivo; conditions: 2 weeks after treatment
# Protocol: as §6
# Crabgrass [34] = experiment: Post-emergent herbicide evaluation (Table I); type: in vivo; conditions: 4000 ppm, 2 weeks after treatment
# Protocol: as §6
# Soybeans = experiment: Post-emergent herbicide evaluation (Table I); type: in vivo; conditions: 4000 ppm, 2 weeks after treatment
# Protocol: as §6
# two-spotted spider mites = experiment: Standard screening test, control of two-spotted spider mites; type: in vivo; conditions: 400 parts per million
smiles,measurement,setting,value
"N#Cc1cc(Br)c(O)c(Br)n1 [4,6-dibromo-5-hydroxy-2-pyridine nitrile]",minimal effective concentration,Wild Mustard,62 µg/mL
same,minimal effective concentration,Morning Glory [1],1000 µg/mL
same,minimal effective concentration,Wild Oats [2],500 µg/mL
same,times more active than BROMINIL against wild oats,"Wild Oats [2]; post-emergent, relative to BROMINIL",8 times
same,minimal effective concentration,Wheat,2000 µg/mL
same,minimal effective concentration,Buckwheat,250 µg/mL
same,minimal effective concentration,Bindweed [3],4000 µg/mL
same,general activity relative to BROMINIL,plants,generally less active than BROMINIL
same,herbicidal activity against weeds,weeds,moderately active herbicide against weeds
same,activity against most crop plants,crop plants,low or nil activity against most crop plants
same,solubility in the common organic solvents,Solubility; common organic solvents,soluble in the common organic solvents
same,solubility in water,Solubility; water,essentially insoluble in water
same,growth inhibition of Staphylococcus aureus,Staphylococcus aureus,inhibited growth
same,% Control,German Millet [4],40%
same,% Control,Yellow Foxtail [5],80%
same,% Control,Corn [6],20%
same,% Control,White Winter Wheat [7],0%
same,% Control,Soybean,0%
same,% Control,Johnson Grass,0%
same,% Control,Rape [8],25%
same,% Control,Barnyard Grass [9],40%
same,% Control,Morning Glory [10],15%
same,% Control,Beans [11],60%
same,% Control,Wild Oats [12]; 4 Lbs/Acre,70%
same,% Control,Wild Oats [12]; 10 Lbs/Acre,85%
same,% Control,Sorghum/Milo [13]; 2 Lbs/Acre,0%
same,% Control,Sorghum/Milo [13]; 4 Lbs/Acre,15%
same,% Control,Pigweeds [14],100%
same,% Control,Cotton [15]; 4 Lbs/Acre,0%
same,% Control,Cotton [15]; 10 Lbs/Acre,100%
same,% Control,Cultured Rice [16]; 2 Lbs/Acre,0%
same,% Control,Cultured Rice [16]; 4 Lbs/Acre,15%
same,% Control,Bindweed [17],25%
same,% Control,Velvet Leaf [18],40%
same,% Control,Crabgrass [19],50%
same,Percent Control,German Millet [20],85%
same,Percent Control,Yellow Foxtail [21],70%
same,Percent Control,Corn [22],0%
same,Percent Control,White Winter Wheat [23],0%
same,Percent Control,Rape [24],100%
same,Percent Control,Barnyard Grass [25],75%
same,Percent Control,Morning Glory [26],100%
same,Percent Control,Beans [27],70%
same,Percent Control,Wild Oats [28],65%
same,Percent Control,Sorghum/Milo [29],0%
same,Percent Control,Pigweeds [30],100%
same,Percent Control,Cotton [31],100%
same,Percent Control,Cultured Rice [32],0%
same,Percent Control,Velvet Leaf [33]; 1000 ppm,85%
same,Percent Control,Velvet Leaf [33]; 2000 ppm,100%
same,Percent Control,Crabgrass [34],100%
same,Percent Control,Soybeans,0%
same,control of two-spotted spider mites,two-spotted spider mites,100%
"N#Cc1cc(Br)c(O)c(Br)c1 [BROMINIL, 3,5-dibromo-4-hydroxy benzonitrile]",minimal effective concentration,Wild Mustard,16 µg/mL
same,minimal effective concentration,Morning Glory [1],16 µg/mL
same,minimal effective concentration,Wild Oats [2],> 4000 µg/mL
same,minimal effective concentration,Wheat,4000 µg/mL
same,minimal effective concentration,Buckwheat,16 µg/mL
same,minimal effective concentration,Bindweed [3],500 µg/mL
